Literature values, collected in patent publication US20060166941A1, “Treatment and/or prevention of non-viral epithelial damage” (Epistem Limited, priority 2003, published 2006).

Tested on: Na+/Pi cotransport across renal cortical brush border membrane
Conditions: Hoppe et al. 1988; cited from earlier work

O=C(O)C(Cl)(Br)P(=O)(O)O (stereo not drawn) [alpha-Cl-alpha-Br-phosphonoacetate]
inhibitory activity relative to phosphonoformic acid: threefold greater inhibitory activity than phosphonoformic acid
